Source: patent US6518012B1, “Method for regulating the expression of MHC antigens and CD40 by inhibitors of histone deacetylation” (Health Research, Inc., priority 1999, dated 2003)

Assays:
[1] = system: class II transactivator (CIITA) mRNA; assay: CIITA mRNA by standard PCR and real-time PCR in human cell lines JAR and SK-N-MC; format: cell-based; settings: for CIITA mRNA fold change: MC cells, real time PCR up to 60 cycles, 100 nM TSA 24 hr, NaBu 1 mM 48 hr
Procedure: To determine the effect of DAIs on HLA-DRα mRNA, cytoplasmic RNA was isolated from untreated and treated human trophoblast cell line JAR using standard techniques (RNeasy System from Qiagen). Standard PCR was performed using primers for DR and CIITA (Murphy et al., 1998, Reprod Dev., Chin et al., 1994, Immunity 1:687-697). Other primers used included human and mouse GAPDH (Clontech) and forward primer 5′-[…]-3′ (SEQ ID NO:25) and reverse primer 5′-[…]-3′ (SEQ ID NO:26) for mouse CIITA. PCR products were amplified with GOLD Taq for 10 min at 95° C., then 95° C. for 30 sec, 60° C. for 60 sec (25-45 cycles), then an extension at 60° C. for 10 min.
Oligonucleotide primers and TaqMan 5′-6-FAM and 3′-TAMRA-labeled probes were synthesized in the RPCI Biopolymer Facility. Primer and probe sequences are listed under Sequence Listing and also in FIG. 9. Sequences were designed using standard software (PrimerExpress software, PE Biosystems) except for human GAPDH.
Realtime PCR reactions contained TaqMan Universal PCR Master Mix (PE Biosystems), primers at 300 nM, and probes at optimal concentrations (150-225 nM depending on gene). Reactions were carried out on an ABI PRISM 7700 Sequence Detection System (PE Biosystems). Cycling conditions were 50° C. for 2 min, 95° C. for 10 min, then 60 cycles of 95° C. for 15 sec, 60° C. for 1 min. PCR samples were run in triplicate. The detection system and quantitative PCR was carried out as described by Williamson et al. (1995, Genet Res. 65:83-93). The threshold cycle number CT corresponded to the cycle number, at which the fluorescent emission reaches 10 standard deviations above the mean fluorescent emission, measured during the early ‘baseline’ cycles of the PCR. The CT values for triplicates were averaged and normalized to GAPDH levels. […] Assuming reverse transcription efficiencies were approximately the same for each sample, relative amounts of mRNA using the comparative CT method. Fold changes in mRNA levels were calculated as 2^x where x=the difference between normalized CT values of the control and experimental samples.
[…] RNA was isolated and real time quantitative RT-PCR was carried out. The fold increase in mRNA over the control was calculated.

CD40 mRNA = CD40 mRNA by real-time PCR in Colon 26 and J558; format: cell-based, mouse
Procedure: In order to obtain more quantitative information on fold changes in DR and CIITA after treatment with the deacetylase inhibitors, a real time fluorescence technique capable of quantitating low copy numbers of transcripts was carried out as follows. Oligonucleotide primers and TaqMan 5′-6-FAM and 3′-TAMRA-labeled probes were synthesized in the RPCI Biopolymer Facility. Primer and probe sequences are listed under Sequence Listing and also in FIG. 9. Sequences were designed using standard software (PrimerExpress software, PE Biosystems) except for human GAPDH.
Realtime PCR reactions contained TaqMan Universal PCR Master Mix (PE Biosystems), primers at 300 nM, and probes at optimal concentrations (150-225 nM depending on gene). Reactions were carried out on an ABI PRISM 7700 Sequence Detection System (PE Biosystems). Cycling conditions were 50° C. for 2 min, 95° C. for 10 min, then 60 cycles of 95° C. for 15 sec, 60° C. for 1 min. PCR samples were run in triplicate. The detection system and quantitative PCR was carried out as described by Williamson et al. (1995, Genet Res. 65:83-93). The threshold cycle number CT corresponded to the cycle number, at which the fluorescent emission reaches 10 standard deviations above the mean fluorescent emission, measured during the early ‘baseline’ cycles of the PCR. The CT values for triplicates were averaged and normalized to GAPDH levels. […] In such cases, in order to calculate a minimum fold change for other samples in the same group, the CT value was arbitrarily set at 40. […] Assuming reverse transcription efficiencies were approximately the same for each sample, relative amounts of mRNA using the comparative CT method. Fold changes in mRNA levels were calculated as 2^x where x=the difference between normalized CT values of the control and experimental samples.
This embodiment illustrates the effect of DAIs on costimulatory molecules. Because of the importance of costimulatory molecules in the cellular activation mechanism involving MHC complexes, the effect of DAIs on the expression of B7-1, B7-2 and CD40 genes was investigated by real-time PCR as well as RT-PCR. While no consistent changes in B7-1 and B7-2 were detected (data not shown), CD40 expression was enhanced by TSA in all three cell types (FIGS. 7A, B, C). MC cells constitutively expressed low levels of CD40 and IFNγ enhanced CD40 mRNA levels 5-fold while TSA elicited a 12-fold increase at 24 hours (FIG. 7A). […] GADPH mRNA remained essentially unchanged with both the primer sites used in RT-PCR and real-time PCR. The lack of induction of CD40 by IFNγ in J558 cells is consistent with the failure of IFNγ to activate other IFNγ inducible genes.

HLA-DRα mRNA = HLA-DRα mRNA by standard PCR and real-time PCR in human cell lines JAR and SK-N-MC; format: cell-based; settings: for fold increase in expression of DR: MC cells, real time PCR, 100 nM TSA 24 hr, NaBu 1 mM 48 hr, IFNγ any concentration or time point; for levels of mRNA for HLA-DRα (DR): SK-N-MC, RT-PCR, 100 nM TSA 24 hours, 1 mM NaBu 48 hours, IFNγ
[2] = SK-N-MC, routine RT-PCR at 35 cycles, 100 nM TSA 24 hours, 1 mM NaBu 48 hours, IFNγ
[3] = Colon 26, 60 cycles, 100 U/ml IFNγ for 24 hours, TSA (12 and 48 hours)
[4] = J558, TSA 25 nM for 24 hours, IFNγ

Molecule | CIITA mRNA fold change ([1]; IFNγ) | CIITA transcription [1, 2] | CD40 mRNA fold increase (CD40 mRNA; [3]) | CD40 mRNA fold increase (CD40 mRNA; [4]) | fold increase in expression of DR (HLA-DRα mRNA) | levels of mRNA for HLA-DRα (DR) (HLA-DRα mRNA) | CIITA transcription ([1]; JAR, standard PCR at 35 cycles, 100 nM or 250 nM TSA or 1 mM sodium butyrate)
IFNγ: gamma-interferon, cytokine used as comparator at 100 U/ml | 4 fold | not detected | undetectable | did not change | did not stimulate | cannot be induced | 
CC(/C=C/C(=O)NO)=C\[C@@H](C)C(=O)c1ccc(N(C)C)cc1 [TSA, Trichostatin A] | no increase | undetectable | 147 fold | 161 fold | 108 fold | substantial increase | undetectable
